Source: patent US11780839B2, “Compounds for treating Huntington's disease” (PTC THERAPEUTICS, INC., priority 2018, dated 2023)

Test system: Endogenous Huntingtin Protein
Experiment: Endogenous Huntingtin Protein Assay (ELISA-based Meso Scale Discovery electrochemiluminescence)
Type: cell-based
Details: MSD electrochemiluminescence, Table 1
Procedure: Compounds of Formula (I) or Formula (II) were tested using the Meso Scale Discovery (MSD) Assay provided in International Application No. PCT/US2016/066042, filed on Dec. 11, 2016 and claiming priority to U.S. Provisional Application 62/265,652 filed on Dec. 10, 2015, the entire contents of which are incorporated herein by reference.
The Endogenous Huntingtin Protein assay used in Example 1 was developed using the ELISA-based MSD electrochemiluminescence assay platform.
Endogenous Huntingtin Protein Assay
Meso Scale Discovery (MSD) 96-well or 384-well plates were coated overnight at 4° C. with MW1 (expanded polyglutamine) or MAB2166 monoclonal antibody (for capture) at a concentration of 1 μg/mL in PBS (30 μL per well). Plates were then washed three times with 300 μL wash buffer (0.05% Tween-20 in PBS) and blocked (100 μL blocking buffer; 5% BSA in PBS) for 4-5 hours at room temperature with rotational shaking and then washed three times with wash buffer.
Samples (25 μL) were transferred to the antibody-coated MSD plate and incubated overnight at 4° C. After removal of the lysates, the plate was washed three times with wash buffer, and 25 μL of #5656S (Cell signaling; rabbit monoclonal) secondary antibody (diluted to 0.25 μg/mL in 0.05% Tween-20 in blocking buffer) was added to each well and incubated with shaking for 1 Hour at room temperature. Following incubation with the secondary antibody, the wells were rinsed with wash buffer after which 25 μL of goat anti-rabbit SULFO TAG secondary detection antibody (required aspect of the MSD system) (diluted to 0.25 μg/mL in 0.05% Tween-20 in blocking buffer) was added to each well and incubated with shaking for 1 hour at room temperature. After rinsing three times with wash buffer, 150 μL of read buffer T with surfactant (MSD) were added to each empty well, and the plate was imaged on a SI 6000 imager (MSD) according to manufacturers' instructions provided for 96- or 384-well plates.

Row | Structure (SMILES) | IC50
1 | CC(=O)c1cnn(-c2ccc(-c3cnc(N(C)C4CC(C)(C)NC(C)(C)C4)nn3)c(O)c2)c1 [Cpd 68, 1-[1-(3-hydroxy-4-{3-[methyl(2,2,6,6-tetramethylpiperidin-4-yl)amino]-1,2,4-triazin-6-yl}phenyl)-1H-pyrazol-4-yl]ethan-l-one] | ≤ 0.1 µM
2 | Cc1cnn(-c2ccc(-c3cnc(N(C)C4CC(C)(C)NC(C)(C)C4)nn3)c(O)c2)n1 [Cpd 69, 2-{3-[methyl(2,2,6,6-tetramethylpiperidin-4-yl)amino]-1,2,4-triazin-6-yl}-5-(4-methyl-2H-1,2,3-triazol-2-yl)phenol] | ≤ 0.1 µM
3 | CN(c1ncc(-c2ccc(-c3cccnc3)cc2O)nn1)C1CC(C)(C)NC(C)(C)C1 [Cpd 70, 2-{3-[methyl(2,2,6,6-tetramethylpiperidin-4-yl)amino]-1,2,4-triazin-6-yl}-5-(pyridin-3-yl)phenol] | 0.1 to 0.5 µM
4 | CN(c1ncc(-c2ccc(-c3ccccn3)cc2O)nn1)C1CC(C)(C)NC(C)(C)C1 [Cpd 71, 2-{3-[methyl(2,2,6,6-tetramethylpiperidin-4-yl)amino]-1,2,4-triazin-6-yl}-5-(pyridin-2-yl)phenol] | ≤ 0.1 µM
5 | CC1(C)CC(Oc2ncc(-c3ccc(-c4c[nH]nc4F)cc3O)nn2)CC(C)(C)N1 [Cpd 72, 5-(3-fluoro-1H-pyrazol-4-yl)-2-{3-[(2,2,6,6-tetramethylpiperidin-4-yl)oxy]-1,2,4-triazin-6-yl}phenol] | ≤ 0.1 µM
6 | CC1(C)CC(Nc2ncc(-c3ccc(-c4c[nH]nc4F)cc3O)nn2)CC(C)(C)N1 [Cpd 73, 5-(3-fluoro-1H-pyrazol-4-yl)-2-{3-[(2,2,6,6-tetramethylpiperidin-4-yl)amino]-1,2,4-triazin-6-yl}phenol] | ≤ 0.1 µM
7 | Cc1ncc(-c2ccc(-c3cnc(N(C)C4CC(C)(C)NC(C)(C)C4)nn3)c(O)c2)o1 [Cpd 74, 5-(2-methyl-1,3-oxazol-5-yl)-2-{3-[methyl(2,2,6,6-tetramethylpiperidin-4-yl)amino]-1,2,4-triazin-6-yl}phenol] | ≤ 0.1 µM
8 | CN(c1ncc(-c2ccc(-c3cn(C)cn3)cc2O)nn1)C1CC(C)(C)NC(C)(C)C1 [Cpd 75, 5-(1-methyl-1H-imidazol-4-yl)-2-{3-[methyl(2,2,6,6-tetramethylpiperidin-4-yl)amino]-1,2,4-triazin-6-yl}phenol] | > 0.5 µM
9 | CN(c1ncc(-c2ccc(-c3ccn(C)n3)cc2O)nn1)C1CC(C)(C)NC(C)(C)C1 [Cpd 76, 5-(1-methyl-1H-pyrazol-3-yl)-2-{3-[methyl(2,2,6,6-tetramethylpiperidin-4-yl)amino]-1,2,4-triazin-6-yl}phenol] | ≤ 0.1 µM
10 | CN1[C@@H]2CCC[C@H]1CC(Nc1ncc(-c3ccc(-c4cn[nH]c4)cc3O)nn1)C2 (stereo partly drawn) [Cpd 77, 2-{3-{[(1R,3s,5S)-9-methyl-9-azabicyclo[3.3.1]nonan-3-yl]amino}-1,2,4-triazin-6-yl)-5-(1H-pyrazol-4-yl)phenol] | ≤ 0.1 µM
11 | Oc1cc(-c2cn[nH]c2)ccc1-c1cnc(NC2C[C@H]3CC[C@@H](C2)N3)nn1 (some centres unmarked) [Cpd 78] | ≤ 0.1 µM
12 | CN(c1ncc(-c2ccc(-n3cncn3)cc2O)nn1)C1CC(C)(C)NC(C)(C)C1 [Cpd 79, 2-{3-[methyl(2,2,6,6-tetramethylpiperidin-4-yl)amino]-1,2,4-triazin-6-yl}-5-(1H-1,2,4-triazol-1-yl)phenol] | ≤ 0.1 µM
13 | CN(c1ncc(-c2ccc(-c3cn4ccnc4cn3)cc2O)nn1)C1CC(C)(C)NC(C)(C)C1 [Cpd 80, 5-(imidazo[1,2-a]pyrazin-6-yl)-2-{3-[methyl(2,2,6,6-tetramethylpiperidin-4-yl)amino]-1,2,4-triazin-6-yl}phenol] | ≤ 0.1 µM
14 | Cc1nnc(-c2ccc(-c3cnc(N(C)C4CC(C)(C)NC(C)(C)C4)nn3)c(O)c2)o1 [Cpd 81, 5-(5-methyl-1,3,4-oxadiazol-2-yl)-2-{3-[methyl(2,2,6,6-tetramethylpiperidin-4-yl)amino]-1,2,4-triazin-6-yl}phenol] | ≤ 0.1 µM
15 | CC1CC(Oc2ncc(-c3ccc(-c4cn[nH]c4)cc3O)nn2)CC(C)N1 (centres unmarked) [Cpd 82, 2-{3-[(2,6-dimethylpiperidin-4-yl)oxy]-1,2,4-triazin-6-yl}-5-(1H-pyrazol-4-yl)phenol] | 0.1 to 0.5 µM
16 | CN(c1ncc(-c2ccc(-c3cnccn3)cc2O)nn1)C1CC(C)(C)NC(C)(C)C1 [Cpd 83, 2-{3-[methyl(2,2,6,6-tetramethylpiperidin-4-yl)amino]-1,2,4-triazin-6-yl}-5-(pyrazin-2-yl)phenol] | ≤ 0.1 µM

Row | Structure (SMILES) | IC50
17 | CN(c1ncc(-c2ccc(-c3cccnn3)cc2O)nn1)C1CC(C)(C)NC(C)(C)C1 [Cpd 84, 2-{3-[methyl(2,2,6,6-tetramethylpiperidin-4-yl)amino]-1,2,4-triazin-6-yl}-5-(pyridazin-3-yl)phenol] | ≤ 0.1 µM
18 | CN(c1ncc(-c2ccc(-c3ncccn3)cc2O)nn1)C1CC(C)(C)NC(C)(C)C1 [Cpd 85, 2-{3-[methyl(2,2,6,6-tetramethylpiperidin-4-yl)amino]-1,2,4-triazin-6-yl}-5-(pyrimidin-2-yl)phenol] | ≤ 0.1 µM
19 | CN(c1ncc(-c2ccc(-c3cncnc3)cc2O)nn1)C1CC(C)(C)NC(C)(C)C1 [Cpd 86, 2-{3-[methyl(2,2,6,6-tetramethylpiperidin-4-yl)amino]-1,2,4-triazin-6-yl}-5-(pyrimidin-5-yl)phenol] | 0.1 to 0.5 µM
20 | CN(c1ncc(-c2ccc(-c3cn[nH]c3)cc2O)nn1)C1C[C@H]2CCC[C@@H](C1)N2C (stereo partly drawn) [Cpd 87, 2-(3-{methyl[(1R,3s,5S)-9-methyl-9-azabicyclo[3.3.1]nonan-3-yl]amino}-1,2,4-triazin-6-yl)-5-(1H-pyrazol-4-yl)phenol] | ≤ 0.1 µM
21 | COc1ncnc(-c2ccc(-c3cnc(N(C)C4CC(C)(C)NC(C)(C)C4)nn3)c(O)c2)n1 [Cpd 88, 5-(4-methoxy-1,3,5-triazin-2-yl)-2-{3-[methyl(2,2,6,6-tetramethylpiperidin-4-yl)amino]-1,2,4-triazin-6-yl}phenol] | ≤ 0.1 µM
22 | CN(c1ncc(-c2ccc(-n3ccnc3)cc2O)nn1)C1CC(C)(C)NC(C)(C)C1 [Cpd 89, 5-(1H-imidazol-1-yl)-2-{3-[methyl(2,2,6,6-tetramethylpiperidin-4-yl)amino]-1,2,4-triazin-6-yl}phenol] | ≤ 0.1 µM
23 | CN(c1ncc(-c2ccc(-n3cc(O)cn3)cc2O)nn1)C1CC(C)(C)NC(C)(C)C1 [Cpd 90, 1-(3-hydroxy-4-{3-[methyl(2,2,6,6-tetramethylpiperidin-4-yl)amino]-1,2,4-triazin-6-yl}phenyl)-1H-pyrazol-4-ol] | ≤ 0.1 µM
24 | CN(c1ncc(-c2ccc(-c3cnco3)cc2O)nn1)C1CC(C)(C)NC(C)(C)C1 [Cpd 91, 2-{3-[methyl(2,2,6,6-tetramethylpiperidin-4-yl)amino]-1,2,4-triazin-6-yl}-5-(1,3-oxazol-5-yl)phenol] | ≤ 0.1 µM
25 | CN(c1ncc(-c2ccc(-c3ccc4nccn4n3)cc2O)nn1)C1CC(C)(C)NC(C)(C)C1 [Cpd 92, 5-(imidazo[1,2-b]pyridazin-6-yl)-2-{3-[methyl(2,2,6,6-tetramethylpiperidin-4-yl)amino]-1,2,4-triazin-6-yl}phenol] | ≤ 0.1 µM
26 | CN(c1ncc(-c2ccc(-n3cc(F)cn3)cc2O)nn1)C1CC(C)(C)NC(C)(C)C1 [Cpd 93, 5-(4-fluoro-1H-pyrazol-1-yl)-2-{3-[methyl(2,2,6,6-tetramethylpiperidin-4-yl)amino]-1,2,4-triazin-6-yl}phenol] | ≤ 0.1 µM
27 | Cc1cnn(-c2ccc(-c3cnc(N(C)C4CC(C)(C)NC(C)(C)C4)nn3)c(O)c2)c1 [Cpd 94, 5-(4-methyl-1H-pyrazol-1-yl)-2-{3-[methyl(2,2,6,6-tetramethylpiperidin-4-yl)amino]-1,2,4-triazin-6-yl}phenol] | 0.1 to 0.5 µM
28 | Oc1cc(-c2cn[nH]c2)ccc1-c1cnc(N2CCC3(CC2)CNC3)nn1 [Cpd 95, 2-[3-(2,7-diazaspiro[3.5]nonan-7-yl)-1,2,4-triazin-6-yl]-5-(1H-pyrazol-4-yl)phenol] | 0.1 to 0.5 µM
29 | Oc1cc(-c2cn[nH]c2)ccc1-c1cnc(N2CC3(CCNCC3)C2)nn1 [Cpd 96, 2-[3-(2,7-diazaspiro[3.5]nonan-2-yl)-1,2,4-triazin-6-yl]-5-(1H-pyrazol-4-yl)phenol] | ≤ 0.1 µM
30 | CN(c1ncc(-c2ccc(-c3ccc4[nH]ncc4c3)cc2O)nn1)C1CC(C)(C)NC(C)(C)C1 [Cpd 97, 5-(1H-indazol-5-yl)-2-{3-[methyl(2,2,6,6-tetramethylpiperidin-4-yl)amino]-1,2,4-triazin-6-yl}phenol] | ≤ 0.1 µM
31 | CN(c1ncc(-c2ccc(-c3cc(F)ccn3)cc2O)nn1)C1CC(C)(C)NC(C)(C)C1 [Cpd 98, 5-(4-fluoropyridin-2-yl)-2-{3-[methyl(2,2,6,6-tetramethylpiperidin-4-yl)amino]-1,2,4-triazin-6-yl}phenol] | 0.1 to 0.5 µM
32 | CN(c1ncc(-c2ccc(-n3ncc([N+](=O)[O-])n3)cc2O)nn1)C1CC(C)(C)NC(C)(C)C1 [Cpd 99, 2-{3-[methyl(2,2,6,6-tetramethylpiperidin-4-yl)amino]-1,2,4-triazin-6-yl}-5-(4-nitro-2H-1,2,3-triazol-2-yl)phenol] | ≤ 0.1 µM
